# Source: patent US10350228B2, “Treatment of sickle cell disease and inflammatory conditions” (Seattle Genetics, Inc., priority 2012, dated 2019)
# Entries after “also recorded” stand apart in the source; their conditions may differ.
# Tests used:
# NF-κB phospho-p65 = assay: Western blot of NF-κB phospho-p65 in liver nuclear extracts of sickle cell mice; assay type: in vivo, NY1DD sickle cell mice; conditions: 7 days
# Procedure: (§1) NY1DD sickle cell mice were given plain water or 20 or 100 mM 2-fluorofucose in their drinking water ad libitum for 7 days. The treatment and control group had four mice per treatment group. On day 7, the mice were sacrificed with CO2. An EDTA blood sample was collected from the heart and the liver was removed and frozen in liquid nitrogen. Total white blood cell counts and differentials were performed by manual counting using a hemocytometer and Wright-stained blood smears, respectively. Nuclear extracts were prepared from nuclei isolated from liver homogenates. Western blots of the nuclear extracts were immunostained with antibodies to NF-κB phospho-p65 a marker of NF-κB activation.
# NY1DD sickle cell mice = assay: Hemoglobin-induced vascular stasis in dorsal skin fold chamber venules; assay type: in vivo; conditions: 20 mM in drinking water 7 days
# Procedure: NY1DD sickle cell mice were given plain water or 20 or 100 mM 2-fluorofucose in their drinking water ad libitum for 7 days. On day 4, dorsal skin fold chambers were implanted onto the mice (n=4). On day 7, flowing venules in the dorsal skin-fold chamber window were selected and mapped using intravital microscopy. Thereafter, the mice were infused via the tail vein with human stroma-free hemoglobin (0.32 μmols heme/kg), a known inducer of vascular stasis in SCD mice. At 1 and 4 hours after infusion the same venules were re-examined and the percentage of vessels that had become static (no flow) was recorded. A control group of NY1DD mice (n=3) with implanted dorsal skin-fold chambers was given water to drink and injected intraperitoneally with hemin (40 μmols/kg×3 days) a known inhibitor of vascular stasis
# white blood cells = assay: White blood cell counts in sickle cell mice; assay type: in vivo, NY1DD sickle cell mice; conditions: 7 days
# Procedure: as §1
# [1] = test system: antibody core fucosylation; assay: Inhibition of antibody core fucosylation by fucose analogs; assay type: cell-based
# Description: Methods of determining whether a fucose analog is capable of having an effect on antibody core fucosylation is provided in WO 2012/019165.
# E-selectin [2] = assay: E-selectin binding to neutrophils from treated mice (flow cytometry); assay type: in vivo, Balb/c mice; conditions: 10 or 100 mM in drinking water, day 21
# Procedure: (§2) Female Balb/c mice were given oral 2-fluorofucose in their drinking water (10 mM, 100 mM, n=3/group) or left untreated. Mice remained on the 2-fluorofucose-containing water through day 21 when blood was collected. Pre-dose bleeds were collected for baseline comparison. Total white cells/μL blood were determined by hemacytometer using Turk's solution (0.01% gentian violet in 3% acetic acid) to exclude red blood cells. RBCs were eliminated from the remainder of the blood by osmotic lysis for flow cytometric analysis. Cells were incubated with anti-Gr-1-FITC antibodies (BD Biosciences) to identify neutrophils, and a recombinant P-selectin-human Fc fusion protein (R&D Systems) or a recombinant E-selectin-human Fc fusion protein. Cells were washed and then incubated with a PE-labeled goat anti-human IgG-Fc secondary antibody (Jackson Immunoresearch) to detect bound P-selectin or E-selectin. Samples were collected on a FACSCalibur flow cytometer and analyzed using CellQuest software. The percentage of Gr-1+ cells was determined and absolute number of neutrophils was calculated using the total white cell number from the hemacytometer count. In addition, flow samples were gated for Gr-1+ cells to assess P-selectin or E-selectin binding to neutrophils by histogram analysis. The geometric mean of the P-selectin or E-selectin fluorescent signal was determined from the histogram. […]
# activated HUVEC cells = assay: Adhesion of LS174T cells to TNFα-activated HUVEC cells; assay type: cell-based; conditions: cells cultured with 100 μM for 10 days; adhesion at 4° C.
# Procedure: For adhesion to activated HUVEC cells, non-tissue culture treated 96-well clear bottom black culture plates were coated with attachment factor (100 μL/well), 30 min at room temperature. Wells were aspirated and HUVECs were added to half of the wells (40,000 cells/200 μL cell culture medium) while 3% BSA/PBS was added to the remaining control wells (100 μL) and the plate was incubated overnight at 37° C., 5% CO2. The confluent HUVEC cells were then treated with TNFα (20 ng/mL in PBS) for 4 hr at 37° C. Meanwhile tumor cells were labeled with Calcein-AM as described. The wells of the 96-well plate were all aspirated and seeded with 2-fluorofucose-treated or untreated labeled LS174T cells (500000 cells/well) and the plate was kept at 4° C. for 2 hr. Plates were read at 480 nm excitation and 520 nm emission (total cell reading) and then washed with DPBS four times, followed by fluorescent analysis. (see FIG. 4; The numeral 1 refers to 2-fluorofucose).
# E-selectin [3] = assay: Adhesion of LS174T cells to immobilized E-selectin; assay type: cell-based; conditions: cells cultured with 100 μM for 10 days; adhesion at 4° C.
# Procedure: LS174T cells (ATCC) were cultured in MEM-Eagle with 10% FBS with or without 100 μM 2-fluorofucose for 10 days. For adhesion to purified E-selectin, non-tissue culture treated 96-well clear bottom black culture plates were coated with E-selectin-Fc chimera (5 μg/mL, PBS) and controls with 3% BSA/PBS, 2 hr at 37° C., then overnight at 4° C. Wells were washed two times with PBS and blocked with 3% BSA/PBS (2 hr, room temperature). LS174T cells were harvested and washed with PBS 2 times, labeled with 5 μM Calcein-AM in serum-free medium (15 min), and washed with DBPS two times. Cells in DPBS (100 μL) of were added to each well and the plate was kept at 4° C. for 2 hr. Plates were read at 480 nm excitation and 520 nm emission (total cell reading) and then washed with DPBS four times, followed by fluorescent analysis.
# P-selectin = P-selectin binding to neutrophils from treated mice (flow cytometry); assay type: in vivo, Balb/c mice; conditions: 10 or 100 mM in drinking water, day 21
# Procedure: as §2
# blood neutrophils = assay: Blood neutrophil counts in treated mice; assay type: in vivo, Balb/c mice; conditions: 10 or 100 mM in drinking water, day 21
# Procedure: as §2
smiles,measurement,setting,value
"C[C@H](O)[C@@H](O)[C@@H](O)[C@H](F)C=O [2-fluorofucose, 2-deoxy-2-fluorofucose]",Nuclear NF-κB phospho-p65 in liver,NF-κB phospho-p65; 20 mM in drinking water,partially diminished
same,Nuclear NF-κB phospho-p65 in liver,NF-κB phospho-p65; 100 mM in drinking water,markedly decreased
same,percent static venules (vascular stasis),NY1DD sickle cell mice; 1 hour after hemoglobin infusion,partially inhibited stasis; also recorded: partially diminished
same,percent static venules (vascular stasis),NY1DD sickle cell mice; 4 hours after hemoglobin infusion,partially inhibited stasis; also recorded: partially diminished
same,White blood cells counts (mean+SD),white blood cells; 20 mM in drinking water,22.1+5.2 K/μL
same,White blood cells counts (mean+SD),white blood cells; 100 mM in drinking water,34.2+7.2 K/μL
same,inhibition at 50 µM,"[1]; Table 2, 50 μM analog, read-out: Inhibition at 50 μM",> 80%
same,inhibition at 1000 µM,"[1]; Table 2, 1 mM analog",> 80%
same,E-selectin binding to neutrophils,E-selectin [2],loss
same,adhesion of LS174T cells to HUVEC cells activated with TNFα,activated HUVEC cells,decreased adhesion
same,adhesion of LS174T cells to immobilized E-selectin,E-selectin [3],decreased adhesion; also recorded: diminished adhesion to selectins
same,P-selectin binding to neutrophils,P-selectin,dimished and loss
same,blood neutrophil counts,blood neutrophils,significantly increased
